In patent US20170313669A1, “LACTONE COMPOUNDS AND METHODS OF MAKING AND USING SAME” (THE SCRIPPS RESEARCH INSTITUTE, priority 2015, published 2017):

Assays:
serine hydrolases = assay: Gel-based ABPP in K562, off-targets; type: cell-based, human
Procedure: The K562 cell line was treated with varying concentrations of KC01 for 4 h and the cell membrane fractions analyzed by gel-based ABPP. More specifically, the membrane proteome of K562 cells (left gel, FIG. 9) or cultured K562 cells (right gel, FIG. 9) were treated with the indicated concentrations of KC01 (in vitro: 1 mg/mL proteome; 30 min treatment, 37° C.; in situ: 2×10^6 cells; 4 h treatment, 37° C.), followed by FP-rhodamine (added in vitro to cell proteomes at 2 μM for 30 min, 37° C.) and analyzed by gel-based ABPP. Estimated in vitro and in situ IC50 values for KC01 from the gel-based ABPP experiments were 0.2-0.5 μM. Gel-based ABPP experiments were performed in triplicate with consistent results.

ABHD2 = molecular target: T1, ABHD2 (Homo sapiens, UniProt P08910); assay: ABPP-SILAC, COLO205 cells treated in situ; type: cell-based; settings: COLO 205, 4 h
T1 construct: All ABPP-SILAC experiments were performed using the human COLO205 colon cancer cell line; endogenous in cells; host or cells: COLO205
T1 sequence (P08910 whole entry): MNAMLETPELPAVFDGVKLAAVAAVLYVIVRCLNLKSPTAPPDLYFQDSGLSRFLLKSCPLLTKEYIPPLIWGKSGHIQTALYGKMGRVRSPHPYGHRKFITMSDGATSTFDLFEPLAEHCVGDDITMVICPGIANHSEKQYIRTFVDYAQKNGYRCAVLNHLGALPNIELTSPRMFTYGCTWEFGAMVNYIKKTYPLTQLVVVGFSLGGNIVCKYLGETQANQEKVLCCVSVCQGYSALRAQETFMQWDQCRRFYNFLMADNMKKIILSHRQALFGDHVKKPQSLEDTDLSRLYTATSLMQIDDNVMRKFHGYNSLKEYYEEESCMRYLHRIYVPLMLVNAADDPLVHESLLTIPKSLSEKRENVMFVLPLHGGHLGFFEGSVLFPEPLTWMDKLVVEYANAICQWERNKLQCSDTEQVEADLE

COLO205 cells [1] = assay: LC-MS lipid profiling of treated cells; type: cell-based, human; settings: 1 μM, 4 h
Procedure: ABHD16A^+/+, ABHD16A^+/+, and ABHD16A^−/− littermates of 10 weeks age were anaesthetized by isoflurane and killed by decapitation. The tissues (brains were sliced laterally into two hemispheres; entire spinal cord) were harvested, weighed, and immediately submerged in liquid N2. Tissues (one half brain or entire spinal cord) were then Dounce-homogenized in 8 mL of 2:1:1 (vol/vol/vol) CHCl3: MeOH: PBS containing the internal standard mix (1 nmol 17:1 FFA, and 100 pmol each of 17:1 lyso-PS, 17:0-20:4 PS, 17:1 lyso-PC, 17:0-20:4 PC, 17:0-20:4 PE and 50 pmol of 2-AG-d5). Homogenates were transferred to a glass vial and centrifuged at 2800×g for 10 minutes to separate the two phases. The organic phase (bottom) was removed, 200 μL of formic acid was added to acidify the aqueous homogenate (to enhance extraction of phospholipids), and CHCl3 was added to make up 8 mL volume. The mixture was vortexed, and separated using centrifugation described above. Both the organic extracts were pooled, and dried under a stream of N2. The metabolomes were then re-solubilized in 120 μL of 2:1 (vol/vol) CHCl3: MeOH, and 10 μL were used for the targeted LC-MS analysis. For cellular and secreted metabolomics studies, serum free phenol red free RPMI 1640 media was used to prevent any promiscuous contributions from serum lipids. For the cellular metabolomics studies, 3×10^6 cells were used for all cancer cell lines (COLO205, K562, and MCF7) and lymphoblast cell lines (LCLs), and 2×10^6 cells were used for thioglycollate-elicited peritoneal macrophages. […]
All the metabolites analyzed in this study were quantified using the multiple reaction monitoring (MRM) methods the targeted LC/MS analysis was done using an Agilent Technologies 6460 Triple Quad LC/M with an Agilent Technologies 1290 Infinity series quaternary pump. All data was collected using the LC/MS Data Acquisition mode of the Mass Hunter Workstation Software version B.05.00 build 5.0.5027.0 SP, and analyzed using the Quantitative Analysis mode of the same software. […]

ABHD12−/− macrophages = assay: Lyso-PS and cytokine secretion of ABHD12−/− macrophages; type: cell-based, mouse; settings: pre-treatment 1 μM, 4 h
Procedure: (a, b) Concentrations of secreted cytokines from ABHD12^+/+ and ABHD12^−/− thioglycollate-elicited peritoneal macrophages that were either unstimulated (PBS) (a) or stimulated (b) with LPS (5 μg/mL, 7 h). […] Student's t-test: * p<0.05 for ABHD12^−/− and ABHD12^+/+ groups. (c) Concentrations of secreted lyso-PS from ABHD12^+/+ and ABHD12^−/− macrophages treated with vehicle (PBS) or LPS (5 μg/mL) for 7 h. […] Student's t-test: ** p<0.0005, *** p<0.0001 for KC01-treated versus DMSO-treated groups.
Peritoneal macrophages were elicited and harvested from mice according to the standard protocols available from LIPID MAPS (See http://www.lipidmaps.org/protocols/PP0000001400.pdf and http://www.lipidmaps.org/protocols/PP0000001500.pdf). After removal of the RBC lysis buffer, the macrophages were re-suspended in RPMI 1640 with 10% FCS and IX penicillin-streptomycin. Cell counts measured using a Bio-Rad TC10 automated cell counter, and equal numbers of cells (2×10^6) were plated in 10 cm tissue culture dishes. Macrophages were allowed to adhere to the plates for 2 h at 37° C. and 5% CO2. […] Macrophages were then stimulated with lipopolysaccharide (5 μg/mL) for 7 hours. Sterile PBS was the vehicle in these studies. Four milliliters of the media was used for measuring secreted metabolites, and 0.5 mL was used for cytokine measurements.

COLO205 cells [2] = assay: PS lipase activity of membrane fraction after in situ treatment; settings: 1 μM, 4 h
K562 cells = assay: as above; settings: 1 μM, 4 h

CCCCCCCCCCCCCC1OC(=O)/C1=C\CCCCC(N)=O (centres unmarked) [KC01, (Z)-6-(2-oxo-4-tridecyloxetan-3-ylidene)hexanamide]
off-targets detected (serine hydrolases): Very few off-targets | inhibition at 1 µM (ABHD2): 94% | other lipids (PSs, PCs, PEs, lyso-PCs, lyso-PEs, MAGs) (COLO205 cells [1]): No changes | secreted lyso-PSs (18:1 and 18:0) (COLO205 cells [1]; serum-free media): decreased | cellular lyso-PSs (COLO205 cells [1]; vs DMSO): significant reductions in all detected cellular lyso-PSs | LPS-induced increases in lyso-PSs and cytokine secretion (ABHD12−/− macrophages): both blocked | decrease of PS-lipase activity vs DMSO (COLO205 cells [2]): > 90% | decrease of PS-lipase activity vs DMSO (K562 cells): > 90%
